Assay [1] deals with T1, BTK recombinant human protein (Homo sapiens, UniProt Q06187).
T1 construct: purchased Thermo PV3363
Kind of assay: Inhibitory activity against BTK (HTRF KinEASE-TK kit). As to conditions: 2 nM BTK, 10 µM ATP, 0.5 hours preincubation at 25°C; read-out: IC50 values of inhibitory activity against BTK. The class given is biochemical. On the procedure: Test example 1: Inhibitory activity of compounds of the present disclosure against BTK • I. Experimental materials and instruments • 1. BTK recombinant human protein (Thermo, PV3363) • 2. HTRF KinEASE-TK kit (Cisbio, 62TK0PEC) • 3. 1 M MgCl2 (Thermo, AM9530G) • 4. 1 M MnCl2 (Sigma, M1787-100ML) • 5. Adenosine 5'-triphosphate (ATP) (New England Biolabs, P0756L) • 6. DTT 2M (Sangon Biotech, B645939) • 7. Ultrapure water (Invitrogen, 10977-015) • 8. OptiPlate-384, white opaque 384-well microplate (PerkinElmer, 6007290) • 9. 96-well round-bottom plate (Corning, 3788) • 10. Biochemical incubator (Shanghai Boxun Medical & Biological Instruments Co., Ltd., BSP-100) • 11. 15-mL centrifuge tube (Corning) • 12. Benchtop high-speed centrifuge (Changsha Yingtai Instrument Co., Ltd., TD4N) • 13. Multifunctional microplate reader (PerkinElmer, EnVision) • 14. Bravo liquid handling platform (Agilent Technologies, SGC120TH34702) • II. Experimental procedure
The HTRF KinEASE-TK kit is designed to detect changes in BTK enzyme activity based on two technologies, i.e., fluorescence resonance energy transfer and time-resolved fluorescence. The kit is operated in two stages: 1) enzyme reaction stage: the enzyme reaction is initiated by adding ATP, where the enzyme phosphorylates the substrate, and the compounds are then added to competitively bind to BTK against ATP, thereby inhibiting substrate phosphorylation; and 2) detection stage: after the enzyme reaction is complete, a detection reagent is added to terminate the reaction. Different groups on the phosphorylated substrate bind to the energy donor and energy acceptor, respectively, bringing the two into close proximity. During the instrumental readout, the energy donor is excited by an external light source, which enables resonance energy transfer to the proximal energy acceptor. The acceptor, in turn, becomes excited and emits light at a specific wavelength. Thus, changes in enzyme activity can be detected by measuring the signal values, and the inhibition rate of the compounds against the target enzyme can be calculated, thereby evaluating the inhibitory effect of the compounds on BTK enzyme activity.
Preparation of enzyme reaction buffer: 5× Kinase Buffer was diluted 5-fold with ultrapure water, and then the stock solutions of MgCl2, MnCl2 and DTT were added. The final composition of the buffer was as follows: 1× Kinase Buffer, 10 mM MgCl2, 1 mM MnCl2, and 1 mM DTT.
Preparation of 5 × BTK working solution: The BTK (5.17 µM) stock solution was removed from -20°C storage. Given that the BTK concentration in the enzyme reaction system was 2 nM and the concentration of the 5× working solution was 10 nM, the BTK stock solution was diluted 517-fold with the enzyme reaction buffer according to the volume required for the experiment. The diluted solution was then added to the 384-well plate at 2 µL per well. The plate was placed in a plate spinner and centrifuged at 2000 rpm for 1 minute to bring the liquid to the bottom of the wells.
[…]. Given that the SEB concentration in the enzyme reaction system was 50 nM and the concentration of the 5× working solution was 250 nM, the SEB stock solution was diluted 10-fold with the enzyme reaction buffer according to the volume required for the experiment. The diluted solution was then added to the 384-well plate at 2 µL per well. The plate was placed in a plate spinner and centrifuged at 2000 rpm for 1 minute to bring the liquid to the bottom of the wells.
The test compounds dissolved in 100% DMSO at 20 mM were diluted with 100% DMSO to a concentration of 200 µM, which represents the 200× concentration of the highest compound concentration point in the reaction system. The compounds at this concentration were then subjected to 10-point 3-fold serial dilution with 100% DMSO. The positive control wells and negative control wells were set with 100% DMSO. […]
On the technique in general: In TR-FRET formats the signal depends on donor and acceptor labels being close together.

Assay [2] deals with B cell activation in human whole blood. Kind of assay: Inhibition of B cell activation in human whole blood (CD69 expression, flow cytometry). The assay is classed as cell-based. Particulars: anti-human IgD 30 µg/ml + IL-4 5 ng/ml, 18 hours, CD69-positive CD19-positive B cells, read-out: IC50 values of inhibitory activity against B cell activation in human whole blood. From the text: Test example 2: Inhibitory activity of compounds of the present disclosure against B cell activation in human whole blood • I. Experimental materials and instruments • 1. Human whole blood (internal recruitment) • 2. Goat F(ab')2 anti-human IgD-UNLB (SouthernBiotech, 2032-01) • 3. DPBS (1x) (Gibco, 14190-144) • 4. Recombinant human IL-4 (Peprotech, 200-04) • 5. Brilliant Violet 421™ anti-human CD19 antibody (Biolegend, 302234) • 6. APC anti-human CD69 antibody (Biolegend, 310910) • 7. APC mouse IgG1, κ isotype control antibody (Biolegend, 400120) • 8. eBioscience™ 10X RBC lysis buffer (multi-species) (Thermo, 004300-54) • 9. NEST 96-well deep-well plate (Wuxi NEST Biotechnology Co., Ltd., 503501) • 10. 96-well round-bottom plate (Corning, 3788) • 11. 96-well flat-bottom plate (Corning, 3599) • 12. Attune™ NxT acoustic focusing cytometer (ThermoFisher Scientific, 4.2.0) • 13. Cell incubator (Thermo, Forma steri-cycle i160) • II. Experimental procedure
B cells express the B cell receptor (BCR) complex on their surface. When B cells in human whole blood are induced to activate, they can trigger the downstream signalling pathways of the receptor and express the activation marker CD69. The expression of CD69 in activated B cells was detected by flow cytometry, and the IC50 of the compounds were calculated to evaluate the effects of the compounds on BCR activation.
The test compounds dissolved in 100% DMSO at 20 mM were diluted with 100% DMSO to a concentration of 1 mM, which represents the 200× concentration of the highest compound concentration point in the reaction system. The compounds at this concentration were then subjected to 8-point 4-fold serial dilution with 100% DMSO. The positive control wells were set with 100% DMSO, whereas the negative control wells were set with Remiburtinib at a final concentration of 5 µM. The serially diluted compounds and 100% DMSO were further diluted 10-fold in PBS to achieve the 20× concentration, followed by thorough mixing.
After thorough mixing, the whole blood sample was transferred to a loading reservoir and then dispensed into a 96-well flat-bottom plate at 80 µl per well. The compound dilution was dispensed at 5 µl per well. The 11th column of each row was designated as the negative control well, with 5 µl of 100 µM positive control drug added to each well. After thorough mixing for 5 min, the plate was incubated in a 37°C incubator for 30 min. Human IgD antibody was diluted 1.67-fold with PBS to a concentration of 300 µg/mL, and 10 µl of the diluted solution was added to each well of the culture plate (final concentration: 30 µg/ml). Human IL-4 (stock solution at 50 µg/ml) was diluted 500-fold with PBS to a concentration of 100 ng/mL, and 5 µl of the diluted solution was added to each well of the culture plate (final concentration: 5 ng/ml). After thorough mixing for 5 min, the plate was cultured in a 37°C incubator with 5% CO2 for 18 hours.
Flow cytometry detection: CD69-APC, CD19-BV421 and CD4-APC antibodies, and the isotype control antibodies for CD69-APC were removed from 4°C storage. Each antibody was added at 1 µl per well. After thorough mixing for 5 min, the plate was incubated for 30 min at 4°C (refrigerator) in the dark for staining. The 10X RBC lysis buffer was diluted in water to prepare 1X RBC lysis buffer. Aliquots of 1 ml of the lysis buffer were dispensed into each well of a 96-well deep-well plate in advance. The stained samples were transferred into the deep-well plate containing the lysis buffer for erythrocyte lysis. After completing the transfer of an entire plate, the plate was incubated in the dark for 15-20 min. Upon completion of lysis, the plate was centrifuged at 2000 rpm for 4 min. Each well was washed with 1 ml of PBS. Subsequently, the cells were resuspended in 200 µl of PBS, transferred to a 96-well plate, and washed twice more using the same procedure. The samples were resuspended in 200 µl of PBS per well and then subjected to flow cytometry detection. […]
On the technique in general: Flow cytometry measures light scatter and fluorescence of single cells or particles in a stream.

Assay [3] concerns the target hERG potassium channels (Homo sapiens, UniProt Q12809). Kind of assay: cell-based.

The values below come from patent EP4782437A1, “HETEROARYL COMPOUND, AND PREPARATION METHOD THEREFOR AND USE THEREOF IN MEDICINE” (Jiangsu Hengrui Pharmaceuticals Co., Ltd., priority 2023, dated 2025).

Chain of hERG potassium channels (Q12809 whole entry): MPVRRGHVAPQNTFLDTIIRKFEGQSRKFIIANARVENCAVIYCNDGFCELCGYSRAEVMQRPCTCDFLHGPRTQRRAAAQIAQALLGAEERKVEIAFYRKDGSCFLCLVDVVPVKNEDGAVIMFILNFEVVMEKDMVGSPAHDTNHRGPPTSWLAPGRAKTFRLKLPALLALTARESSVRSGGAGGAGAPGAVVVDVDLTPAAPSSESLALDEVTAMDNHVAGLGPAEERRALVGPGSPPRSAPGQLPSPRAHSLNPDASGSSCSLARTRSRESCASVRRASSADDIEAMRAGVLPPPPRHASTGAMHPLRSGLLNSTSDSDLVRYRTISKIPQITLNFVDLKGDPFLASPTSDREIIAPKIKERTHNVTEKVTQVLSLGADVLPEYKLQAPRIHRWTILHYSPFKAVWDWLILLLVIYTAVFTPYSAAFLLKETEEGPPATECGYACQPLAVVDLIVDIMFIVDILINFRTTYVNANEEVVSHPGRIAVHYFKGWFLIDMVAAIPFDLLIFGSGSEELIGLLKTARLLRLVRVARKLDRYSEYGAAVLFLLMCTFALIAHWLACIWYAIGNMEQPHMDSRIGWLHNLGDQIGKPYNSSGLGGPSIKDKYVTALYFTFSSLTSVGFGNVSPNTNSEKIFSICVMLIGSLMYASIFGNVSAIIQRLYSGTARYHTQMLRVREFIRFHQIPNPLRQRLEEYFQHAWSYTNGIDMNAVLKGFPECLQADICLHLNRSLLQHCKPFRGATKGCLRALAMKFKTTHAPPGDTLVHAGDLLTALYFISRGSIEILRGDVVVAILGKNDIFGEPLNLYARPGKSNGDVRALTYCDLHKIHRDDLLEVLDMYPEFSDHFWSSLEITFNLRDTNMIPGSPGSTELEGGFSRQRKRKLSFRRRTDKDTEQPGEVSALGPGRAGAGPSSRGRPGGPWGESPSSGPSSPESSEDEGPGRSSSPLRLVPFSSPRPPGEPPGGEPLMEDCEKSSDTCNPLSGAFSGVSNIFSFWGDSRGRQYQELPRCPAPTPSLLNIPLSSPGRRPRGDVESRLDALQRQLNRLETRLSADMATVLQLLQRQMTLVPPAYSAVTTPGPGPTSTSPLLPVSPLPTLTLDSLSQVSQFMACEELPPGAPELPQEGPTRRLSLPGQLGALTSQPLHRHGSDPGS
T1 sequence (Q06187 whole entry): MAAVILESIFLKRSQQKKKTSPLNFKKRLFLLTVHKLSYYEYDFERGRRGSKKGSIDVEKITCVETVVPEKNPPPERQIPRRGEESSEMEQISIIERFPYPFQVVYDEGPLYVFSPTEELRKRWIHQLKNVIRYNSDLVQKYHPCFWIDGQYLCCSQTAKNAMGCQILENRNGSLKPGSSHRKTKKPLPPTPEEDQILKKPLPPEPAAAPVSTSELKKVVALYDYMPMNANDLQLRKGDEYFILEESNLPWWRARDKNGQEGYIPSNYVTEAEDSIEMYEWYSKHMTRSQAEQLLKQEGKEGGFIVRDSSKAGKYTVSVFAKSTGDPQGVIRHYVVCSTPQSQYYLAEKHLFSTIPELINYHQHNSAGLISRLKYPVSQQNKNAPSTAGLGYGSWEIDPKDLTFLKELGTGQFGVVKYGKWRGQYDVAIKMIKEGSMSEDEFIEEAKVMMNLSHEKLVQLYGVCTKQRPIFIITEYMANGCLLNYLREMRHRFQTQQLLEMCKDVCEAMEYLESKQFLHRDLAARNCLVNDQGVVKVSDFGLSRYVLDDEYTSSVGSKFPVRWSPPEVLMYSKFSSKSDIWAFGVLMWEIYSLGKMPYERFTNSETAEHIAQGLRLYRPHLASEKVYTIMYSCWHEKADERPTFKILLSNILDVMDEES

The IC50 is the midpoint of a concentration-inhibition curve. Take `C=CC(=O)N(C)CCOc1c(N)ncnc1-c1cc(F)cc(NC(=O)c2ccc3c(c2F)OCC3(C)C)c1C` [Example 7, N-(3-(6-amino-5-(2-(N-methacrylamido)ethoxy)pyrimidin-4-yl)-5-fluoro-2-methylphenyl)-7-fluoro-3,3-dimethyl-2,3-dihydrobenzofuran-6-carboxamide]: the IC50 in assay [1] was 3 nM; in assay [2], 10 to 100 nM; in assay [3], 17000 nM.
The matching figures for `C=CC(=O)N(C)CCOc1c(N)ncnc1-c1cc(F)cc(NC(=O)c2cc3c(cc2F)C(C)(C)CO3)c1C` [Example 8, N-(3-(6-amino-5-(2-(N-methacrylamido)ethoxy)pyrimidin-4-yl)-5-fluoro-2-methylphenyl)-5-fluoro-3,3-dimethyl-2,3-dihydrobenzofuran-6-carboxamide]: 6.2 nM, 10 to 100 nM and 10000 nM.
Turning to `[2H]C([2H])([2H])N(CCOc1c(N)ncnc1-c1cc(F)cc(NC(=O)c2ccc3c(c2F)OCC32CC2)c1C)C(=O)C=C` [Example 18, N-(3-(6-amino-5-(2-(N-(methyl-d3)acrylamido)ethoxy)pyrimidin-4-yl)-5-fluoro-2-methylphenyl)-7-fluoro-2H-spiro[benzofuran-3,1'-cyclopropane]-6-carboxamide], the IC50 is 3.78 nM in assay [1] and 10 to 100 nM in assay [2].
On the same counts, the results for `[2H]C([2H])([2H])N(CCOc1c(N)ncnc1-c1cc(F)cc(NC(=O)c2cc3c(cc2F)C2(CC3)CC2)c1C)C(=O)C=C` [Example 19, N-(3-(6-amino-5-(2-(N-(methyl-d3)acrylamido)ethoxy)pyrimidin-4-yl)-5-fluoro-2-methylphenyl)-6'-fluoro-2',3'-dihydrospiro[cyclopropane-1,1'-indene]-5'-carboxamide] are 8.99 nM and 10 to 100 nM.
As for `C=CC(=O)N(C)CCOc1c(N)ncnc1-c1cc(F)cc(NC(=O)c2ccc3c(c2)OCC3(C)C)c1C` [Example 27, N-(3-(6-amino-5-(2-(N-methacrylamido)ethoxy)pyrimidin-4-yl)-5-fluoro-2-methylphenyl)-3,3-dimethyl-2,3-dihydrobenzofuran-6-carboxamide], the IC50 was 7.52 nM in assay [1], 10 to 100 nM in assay [2] and 12000 nM in assay [3].
Regarding `[2H]C([2H])(CN(C)C(=O)C=C)Oc1c(N)ncnc1-c1cc(F)cc(NC(=O)c2ccc3c(c2F)OCC3(C)C)c1C` [Example 28, N-(3-(6-amino-5-(2-(N-methacrylamido)ethoxy-1,1-d2)pyrimidin-4-yl)-5-fluoro-2-methylphenyl)-7-fluoro-3,3-dimethyl-2,3-dihydrobenzofuran-6-carboxamide], the IC50 was 2.12 nM in assay [1], 10 to 100 nM in assay [2] and 14000 nM in assay [3].
On the same counts, the results for `C=CC(=O)N(CC)CCOc1c(N)ncnc1-c1cc(F)cc(NC(=O)c2ccc3c(c2F)OCC3(C)C)c1C` [Example 29, N-(3-(6-amino-5-(2-(N-ethylacrylamido)ethoxy)pyrimidin-4-yl)-5-fluoro-2-methylphenyl)-7-fluoro-3,3-dimethyl-2,3-dihydrobenzofuran-6-carboxamide] are 1.73 nM, 10 to 100 nM and 16000 nM.
On to `C=CC(=O)N(CCF)CCOc1c(N)ncnc1-c1cc(F)cc(NC(=O)c2ccc3c(c2F)OCC3(C)C)c1C` [Example 30, N-(3-(6-amino-5-(2-(N-(2-fluoroethyl)acrylamido)ethoxy)pyrimidin-4-yl)-5-fluoro-2-methylphenyl)-7-fluoro-3,3-dimethyl-2,3-dihydrobenzofuran-6-carboxamide], for which the IC50 was 1.55 nM in assay [1], 10 to 100 nM in assay [2] and 20000 nM in assay [3].
Take `C=CC(=O)N1CCC[C@H]1COc1c(N)ncnc1-c1cc(F)cc(NC(=O)c2ccc3c(c2F)OCC3(C)C)c1C` [Example 31, (S)-N-(3-(5-((1-acryloylpyrrolidin-2-yl)methoxy)-6-aminopyrimidin-4-yl)-5-fluoro-2-methylphenyl)-7-fluoro-3,3-dimethyl-2,3-dihydrobenzofuran-6-carboxamide]: the IC50 in assay [1] is 0.7 nM; in assay [2], 10 to 100 nM.
As to `C=CC(=O)N1C[C@H](F)C[C@H]1COc1c(N)ncnc1-c1cc(F)cc(NC(=O)c2ccc3c(c2F)OCC3(C)C)c1C` [Example 32, N-(3-(5-(((2S,4R)-1-acryloyl-4-fluoropyrrolidin-2-yl)methoxy)-6-aminopyrimidin-4-yl)-5-fluoro-2-methylphenyl)-7-fluoro-3,3-dimethyl-2,3-dihydrobenzofuran-6-carboxamide], the figures for the IC50 in assay [1], in assay [2] and in assay [3] were 1.56 nM, 10 to 100 nM and 12000 nM, respectively.
